From US10869931B2, “Polyethylene glycol-modified angiogenesis inhibitor HM-1 and application thereof” (NANJING ANJI BIOLOGICAL TECHNOLOGY CO.,LTD, priority 2016, dated 2020)
Marks after values point to notes of the source that are not given here. Where no end group is shown, it is not given here.

Columns and labels:
Lung cancer tumor cells = test: MTT proliferation inhibition, lung cancer cells; format: cell-based, human; parameters: concentration or dose not given beside the values; settings: 48 h
Method: (§1) The activity of mPEG-HM-1 to inhibit the growth of various tumor cells was examined by MTT assay. The tumor cells were cultured to a concentration of 90% or more in a 37° C., 5% CO2 incubator and collected by trypsinization. The cells were resuspended in the culture medium and counted under a microscope to adjust the cell concentration to 2×10^4 cells/mL, the cell suspension was inoculated into a 96-well plate at 100 μL/well and incubated overnight at 37° C. in a 5% CO2 incubator. mPEG-HM-1 was diluted with the culture solution to each predetermined concentration. Docetaxel is diluted to the final concentration with the culture medium. After the cells were fully attached, each dilution was added to a 96-well plate (100 μL/well). The mPEG-HM-1 dilution was added as a drug-administered group, and docetaxel was added as a positive control group, and a culture solution without any drug was used as a negative control group. Incubate for 48 h at 37° C. in a 5% CO2 incubator. 5 mg/mL of MTT was added to a 96-well plate at 20 μL per well, and incubation was continued for 4 hours. The medium was aspirated, dissolved in 150 μL of DMSO per well, and gently mixed by shaking for 10 min. The absorbance was measured at a measurement wavelength of 570 nm and a reference wavelength of 630 nm using a microplate reader, and the rate of growth inhibition (proliferation inhibition, PI) was calculated. The formula is as follows: PI (%)=1−administration group/negative group
(§2) The test was repeated 3 times independently, and the results obtained by the test were expressed as mean±SD, and the test results are shown in Table 15 to Table 18.

[1] = test system: Cervical cancer tumor cells; test: MTT proliferation inhibition, cervical cancer cells; format: cell-based, human; parameters: concentration or dose not given beside the values; settings: 48 h
Method: as §1, §2

Melanoma tumor cells = test: MTT proliferation inhibition, melanoma cells; format: cell-based, human; parameters: concentration or dose not given beside the values; settings: 48 h
Method: as §1, §2

[2] = test system: Human Umbilical Vein Endothelial Cells (HUVEC); test: Transwell migration of HUVEC; format: cell-based; settings: 24 h
Method: 10 mg/mL Matrigel was diluted 1:2 with HUVEC-specific medium, spread on a transwell chamber membrane, and air-dried at room temperature. HUVEC cells cultured in logarithmic growth phase were digested with trypsin digest, collected, washed twice with PBS, and resuspended in blank HUVECs-specific medium. The cells were counted under a microscope, and the cell concentration was adjusted to 1×10^5/mL. The test solutions of each group were prepared and diluted to 100 μL with a blank HUVECs-specific medium. The cells were seeded into a transwell chamber at 100 μL per well, and each set of test solution was added to the chamber. The cell culture was stimulated by adding 0.6 mL of endothelial cell culture medium containing 5% fetal bovine serum and 1% ECGS into a 24-well plate, and cultured at 5% CO2 for 24 hour at 37° c. Discard the culture medium in the well, fix it with 90% alcohol at room temperature for 30 minutes, 0.1% crystal violet for 10 min at room temperature, rinse with water, gently wipe off the unsprayed cells in the upper layer with a cotton swab, observe under microscope and select four fields to take pictures. Calculate migration inhibition (MI) according to the formula: […]
Ntest was the number of cell migration in the test group, and Ncontrol was the number of cell migration in the blank control group.
The test was repeated 3 times independently. The results obtained from the test were calculated as mean±SD, and a statistical T test was performed. *P<0.05 was a significant difference, and **P<0.01 was a very significant difference.

[3] = test system: IL-1β production by mouse peritoneal macrophages; test: IL-1β production by mouse peritoneal macrophages (ELISA); format: cell-based; settings: 48 h
Method: (1) IL-1β production: mice were intraperitoneally injected with 1 mL of broth (containing 6%) starch, and three days later, the mouse peritoneal macrophages were aseptically taken, washed twice with 1640 medium, and the cell concentration was adjusted to 2×10^6 cells/mL, inject into a 24-well culture plate, 1 mL per well, incubate for 3 hours in a cell culture incubator, shake once every 30 minutes, and allow the cells to fully adhere. Then, it was washed twice with the culture solution to remove unattached cells. The blank group was added with PBS, the positive group was added with the positive drug dexamethasone (Dex), the model group was not administered, to the experimental group was added low, medium and high three concentrations of mPEG-HM-1, and the culture was continued for 48 hours after the administration, 1000 r/min. Centrifuge for 15 min. The supernatant was taken as a sample for testing activity of IL-1β.
(2) Determination of IL-1β content: using R&D mouse IL-1β enzyme-linked immunosorbent assay kit, according to the kit instructions as follows: respectively, the tested samples and different concentrations of standard products, sealed with sealing tape the reaction well and incubated at 37° C. for 90 min; the plate was washed four times; the biotinylated antibody working solution (100 μL/well) was added, and the reaction well was sealed with sealing paper, incubated at 37° c. for 60 min; the plate was washed four times; Add the enzyme conjugate working solution (100 μL/well), seal the reaction well with sealing paper, incubate at 37° C. for 30 min; wash the plate four times; add color reagent (100 μL/well), incubate at 37° C. 10-20 min, add stop solution (100 μL/well), mix and measure OD450 value.

[4] = in vivo

| Substance | rate of growth inhibition (Lung cancer tumor cells) | rate of growth inhibition [1] | rate of growth inhibition (Melanoma tumor cells) | cell migration number (Mean ± SD) ([2]; 50 μg/mL) | inhibition rate of HUVEC migration ([2]; 50 μg/mL) | cell migration number (Mean ± SD) ([2]; 60 μg/mL) | inhibition rate of HUVEC migration ([2]; 60 μg/mL) | IL-1β ([3]; 10 μg/mL) | Inhibition Rate of IL-1β production ([3]; 10 μg/mL) | IL-1β ([3]; 20 μg/mL) | Inhibition Rate of IL-1β production ([3]; 20 μg/mL) | AUC0-∞ [4] | CL [4] | MRT0-∞ [4] | T1/2β (half-life) [4] | cell migration number (Mean ± SD) ([2]; 70 μg/mL) | inhibition rate of HUVEC migration ([2]; 70 μg/mL) | cell migration number (Mean ± SD) ([2]; 80 μg/mL) | inhibition rate of HUVEC migration ([2]; 80 μg/mL) | IL-1β ([3]; 40 μg/mL) | further results |
| --- | --- | --- | --- | --- | --- | --- | --- | --- | --- | --- | --- | --- | --- | --- | --- | --- | --- | --- | --- | --- | --- |
| mPEG2-NHS5k-Arg-Gly-Ala-Asp-Arg-Ala-Gly-Gly-Gly-Gly-Arg-Gly-Asp ({mPEG2‑NHS 5 kDa}-RGADRAGGGGRGD) [mPEG2-NHS5k-HM-1] | 42.83 ± 12.58% | 49.15 ± 14.23% | 59.21 ± 18.93% | 475.01 ± 50.90 | 54.18% | 590.29 ± 50.72 | 43.06%* | 681.45 ± 12.09 pg/mL | 26.42% | 563.37 ± 13.21 pg/mL | 39.17% | 4789.25 ± 12.08 mg/L/h | 0.878 ± 0.187 mL/min/kg | 8.02 ± 5.04 h | 8.85 ± 0.10 h |  |  |  |  |  | cell migration number (Mean ± SD) ([2]; 30 μg/mL): 611.33 ± 58.92; inhibition rate of HUVEC migration ([2]; 30 μg/mL): 41.03%*; cell migration number (Mean ± SD) ([2]; 40 μg/mL): 516.16 ± 48.34; inhibition rate of HUVEC migration ([2]; 40 μg/mL): 50.21%; IL-1β ([3]; 5 μg/mL): 763.97 ± 15.46 pg/mL; Inhibition Rate of IL-1β production ([3]; 5 μg/mL): 17.51% |
| mPEG2-NHS10k-Arg-Gly-Ala-Asp-Arg-Ala-Gly-Gly-Gly-Gly-Arg-Gly-Asp ({mPEG2‑NHS 10 kDa}-RGADRAGGGGRGD) [mPEG2-NHS10k-HM-1] | 45.28 ± 13.96% | 54.82 ± 17.10% | 65.89 ± 20.57% | 603.97 ± 40.36 | 41.74%* | 506.83 ± 46.25 | 51.11% | 758.32 ± 15.18 pg/mL | 18.12% | 675.25 ± 11.93 pg/mL | 27.09% | 4858.62 ± 10.62 mg/L/h | 0.432 ± 0.103 mL/min/kg | 13.08 ± 3.66 h | 15.27 ± 0.11 h | 410.53 ± 48.64 | 60.40% | 563.02 ± 56.22 | 45.69%* | 546.79 ± 14.12 pg/mL | Inhibition Rate of IL-1β production ([3]; 40 μg/mL): 40.96% |
| mPEG2-NHS20k-Arg-Gly-Ala-Asp-Arg-Ala-Gly-Gly-Gly-Gly-Arg-Gly-Asp ({mPEG2‑NHS 20 kDa}-RGADRAGGGGRGD) [mPEG2-NHS20k-HM-1] | 50.82 ± 12.68% | 60.63 ± 19.39% | 69.11 ± 21.79% |  |  |  |  |  |  | 759.06 ± 16.96 pg/mL | 18.04% | 4682.53 ± 15.01 mg/L/h | 0.218 ± 0.17 mL/min/kg | 18.16 ± 10.22 h | 22.38 ± 0.34 h | 618.48 ± 47.53 | 40.34%* | 512.85 ± 40.86 | 50.53% | 655.24 ± 18.59 pg/mL | cell migration number (Mean ± SD) ([2]; 90 μg/mL): 434.68 ± 42.64; inhibition rate of HUVEC migration ([2]; 90 μg/mL): 58.07%; cell migration number (Mean ± SD) ([2]; 100 μg/mL): 562.61 ± 62.34; inhibition rate of HUVEC migration ([2]; 100 μg/mL): 45.73%*; Inhibition Rate of IL-1β production ([3]; 40 μg/mL): 29.25%; IL-1β ([3]; 80 μg/mL): 552.35 ± 10.50 pg/mL; Inhibition Rate of IL-1β production ([3]; 80 μg/mL): 40.36% |
| mPEG2-NHS40k-Arg-Gly-Ala-Asp-Arg-Ala-Gly-Gly-Gly-Gly-Arg-Gly-Asp ({mPEG2‑NHS 40 kDa}-RGADRAGGGGRGD) [mPEG2-NHS40k-HM-1] | 49.39 ± 16.55% | 57.33 ± 14.28% | 66.72 ± 20.85% |  |  |  |  |  |  |  |  | 4579.47 ± 13.52 mg/L/h | 0.11 ± 0.0883 mL/min/kg | 15.27 ± 9.37 h | 42.25 ± 0.27 h |  |  |  |  | 756.84 ± 15.32 pg/mL | cell migration number (Mean ± SD) ([2]; 90 μg/mL): 640.05 ± 50.70; inhibition rate of HUVEC migration ([2]; 90 μg/mL): 38.26%*; cell migration number (Mean ± SD) ([2]; 100 μg/mL): 516.99 ± 60.04; inhibition rate of HUVEC migration ([2]; 100 μg/mL): 50.13%; cell migration number (Mean ± SD) ([2]; 110 μg/mL): 464.43 ± 46.48; inhibition rate of HUVEC migration ([2]; 110 μg/mL): 55.20%; cell migration number (Mean ± SD) ([2]; 120 μg/mL): 584.48 ± 52.28; inhibition rate of HUVEC migration ([2]; 120 μg/mL): 43.62%*; Inhibition Rate of IL-1β production ([3]; 40 μg/mL): 18.28%; IL-1β ([3]; 80 μg/mL): 673.30 ± 16.71 pg/mL; Inhibition Rate of IL-1β production ([3]; 80 μg/mL): 27.30%; IL-1β ([3]; 160 μg/mL): 568.00 ± 10.82 pg/mL; Inhibition Rate of IL-1β production ([3]; 160 μg/mL): 38.67% |
| mPEG-ALD5k-Arg-Gly-Ala-Asp-Arg-Ala-Gly-Gly-Gly-Gly-Arg-Gly-Asp ({mPEG‑ALD 5 kDa}-RGADRAGGGGRGD) [mPEG-ALD5k-HM-1] | 45.76 ± 13.20% | 61.12 ± 18.39% | 63.61 ± 21.30% | 415.39 ± 44.92 | 59.63% | 578.69 ± 66.03 | 43.76%* | 654.50 ± 18.43 pg/mL | 28.62% | 516.13 ± 10.95 pg/mL | 43.71% | 4986.29 ± 10.16 mg/L/h | 0.843 ± 0.157 mL/min/kg | 8.15 ± 4.21 h | 9.13 ± 0.11 h |  |  |  |  |  | cell migration number (Mean ± SD) ([2]; 30 μg/mL): 606.88 ± 58.90; inhibition rate of HUVEC migration ([2]; 30 μg/mL): 41.02%*; cell migration number (Mean ± SD) ([2]; 40 μg/mL): 494.52 ± 52.69; inhibition rate of HUVEC migration ([2]; 40 μg/mL): 51.94%; IL-1β ([3]; 5 μg/mL): 734.73 ± 16.59 pg/mL; Inhibition Rate of IL-1β production ([3]; 5 μg/mL): 19.87% |
| mPEG-ALD10k-Arg-Gly-Ala-Asp-Arg-Ala-Gly-Gly-Gly-Gly-Arg-Gly-Asp ({mPEG‑ALD 10 kDa}-RGADRAGGGGRGD) [mPEG-ALD10k-HM-1] | 65.73 ± 16.20% | 83.04 ± 18.74% | 88.39 ± 22.38% | 604.31 ± 52.14 | 41.27%* | 514.38 ± 42.38 | 50.01% | 724.09 ± 16.59 pg/mL | 21.03% | 620.94 ± 18.43 pg/mL | 32.28% | 5067.98 ± 9.79 mg/L/h | 0.425 ± 0.122 mL/min/kg | 11.05 ± 7.68 h | 16.46 ± 0.10 h | 417.96 ± 50.48 | 59.38% | 548.54 ± 56.22 | 46.69%* | 455.16 ± 10.95 pg/mL |  |
